Data: US9061041B2, “2′-substituted nucleoside derivatives and methods of use thereof for the treatment of viral diseases” (Merck Sharp & Dohme Corp., priority 2011, dated 2015)

The compounds below were run on HCV replicon (1b) cells (assay: Cell-based HCV replicon assay). Details: not given.
Protocol: To measure cell-based anti-HCV activity of selected compounds of the present invention, replicon cells were seeded at 5000 cells/well in 96-well collagen I-coated Nunc plates in the presence of the test compound. […]. Cells were harvested on day 3 by the addition of 1× cell lysis buffer (Ambion cat #8721). The replicon RNA level was measured using real time PCR (Taqman assay). The amplicon was located in 5B. The PCR primers were: 5B.2F, […] (SEQ ID. NO. 1); 5B.2R, […] (SEQ ID. NO. 2); the probe sequence was FAM-labeled […] (SEQ ID. NO. 3). GAPDH RNA was used as endogenous control and was amplified in the same reaction as NS5B (multiplex PCR) using primers and VIC-labeled probe recommended by the manufacturer (PE Applied Biosystem). The real-time RT-PCR reactions were run on ABI PRISM 7900HT Sequence Detection System using the following program: 48° C. for 30 minutes, 95° C. for 10 minutes, 40 cycles of 95° C. for 15 sec, 60° C. for 1 minute. The ΔCT values (CT5B-CTGAPDH) were plotted against the concentration of test compound and fitted to the sigmoid dose-response model using XLfit4 (MDL). […]; Alternatively, to quantitate the absolute amount of replicon RNA, a standard curve was established by including serially diluted T7 transcripts of replicon RNA in the Taqman assay. All Taqman reagents were from PE Applied Biosystems. Such an assay procedure was described in detail in e.g. Malcolm et al., Antimicrobial Agents and Chemotherapy 50: 1013-1020 (2006).

Compound | EC50 [µM]
CC(=O)N[C@]1(C)[C@H](O)[C@@H](CO)O[C@H]1n1ccc(N)nc1=O [Compound 9] | 100
CCOc1nc(N)nc2c1ncn2[C@@H]1O[C@H](CO)[C@@H](O)[C@@]1(C)N [Compound 10] | 29
C[C@@]1(S(C)(=O)=O)[C@H](O)[C@@H](CO)O[C@H]1n1ccc(N)nc1=O [Compound 3] | > 100

Same assay, conditions: Hepatitis C virus, 72 h, replicon RNA level by real time PCR, cells harvested on day 3

Compound | EC50 [µM]
CCCCOC(=O)[C@H](C)NP(=O)(OC[C@H]1O[C@@H](n2cnc3c(OCC)nc(N)nc32)[C@](C)(SC)[C@@H]1O)Oc1cccc2ccccc12 (stereo partly shown) [Compound 44] | 24
CCOc1nc(N)nc2c1ncn2[C@@H]1O[C@H](COP(=O)(N[C@@H](C)C(=O)OC)Oc2ccccc2)C(O)[C@@]1(C)NC(N)=O (stereo partly shown) [Compound 12] | > 100
COC(=O)[C@H](C)NP(=O)(OC[C@H]1O[C@@H](n2ccc(N)nc2=O)[C@](C)(Cl)[C@@H]1O)Oc1ccccc1 (stereo partly shown) [Compound 8] | 34
CCOc1nc(N)nc2c1ncn2[C@@H]1O[C@H](COP(=O)(N[C@@H](C)C(=O)OC)Oc2ccccc2)C(O)[C@@]1(C)N (single isomer, unassigned) [Compound 21] | 2.6
CC(C)OP1(=O)OC[C@H]2O[C@@H](n3ccc(N)nc3=O)[C@](C)(N)[C@@H]2O1 (stereo partly shown) [Compound 78] | 30
CCOc1nc(N)nc2c1ncn2[C@@H]1O[C@H](COP(=O)(N[C@@H](C)C(=O)OC)Oc2ccccc2)[C@@H](O)[C@@]1(C)SC (stereo partly shown) [Compound 43] | 38
C[C@@]1(N)[C@H](O)[C@@H](CO)O[C@H]1n1cnc2c(N3CCC3)nc(N)nc21 [Compound 17] | > 100
CC(C)COC(=O)[C@H](C)NP(=O)(OC[C@H]1O[C@@H](n2ccc(N)nc2=O)[C@](C)(N)[C@@H]1O)Oc1ccccc1 (single isomer, unassigned) [Compound 64] | 6.6
CC(C)COC(=O)[C@H](C)NP(=O)(OC[C@H]1O[C@@H](n2ccc(=O)[nH]c2=O)[C@](C)(N)[C@@H]1O)Oc1ccccc1 (single isomer, unassigned) [Compound 67] | 6.8
CCOC(=O)[C@H](C)NP(=O)(OC[C@H]1O[C@@H](n2cnc3c(OC)nc(N)nc32)[C@](C)(N)C1O)Oc1ccccc1 (single isomer, unassigned) [Compound 28] | 0.1

Same assay, conditions: replicon RNA level by real time PCR, cells harvested on day 3

Compound | EC50 [µM]
C[C@H](NP(=O)(OC[C@H]1O[C@@H](n2ccc(N)nc2=O)[C@](C)(N)C1O)Oc1ccccc1)C(=O)OCC(C)(C)C (single isomer, unassigned) [Compound 59] | 11
COC(=O)[C@H](C)NP(=O)(OC[C@H]1O[C@@H](n2ccc(N)nc2=O)[C@](C)(n2ccnn2)[C@@H]1O)Oc1ccccc1 (stereo partly shown) [Compound 5] | 90
C[C@H](NP(=O)(OC[C@H]1O[C@@H](n2ccc(=O)[nH]c2=O)[C@](C)(N)C1O)Oc1ccccc1)C(=O)OCC(C)(C)C (single isomer, unassigned) [Compound 56] | 0.7
COc1nc(N)nc2c1ncn2[C@@H]1O[C@H](COP(=O)(N[C@@H](C)C(=O)OC(C)C)Oc2ccccc2)C(O)[C@@]1(C)N (single isomer, unassigned) [Compound 23] | > 100
CC(C)OC(=O)[C@H](C)NP(=O)(OC[C@H]1O[C@@H](n2ccc(=O)[nH]c2=O)[C@](C)(N)[C@@H]1O)Oc1ccccc1 (stereo partly shown) [Compound 24] | 5
COc1nc(N)nc2c1ncn2[C@@H]1O[C@H](COP(=O)(N[C@@H](C)C(=O)OC(C)C)Oc2ccccc2)C(O)[C@@]1(C)N (single isomer, unassigned) [Compound 22] | 2.6
CCOC(=O)[C@H](C)NP(=O)(OC[C@H]1O[C@@H](n2cnc3c(OC)nc(N)nc32)[C@](C)(N)C1O)Oc1ccccc1 (single isomer, unassigned) [Compound 29] | 0.1
CCOc1nc(N)nc2c1ncn2[C@@H]1O[C@H](COP(=O)(N[C@@H](C)C(=O)OCC(C)(C)C)Oc2ccccc2)C(O)[C@@]1(C)N (single isomer, unassigned) [Compound 54] | 1.5
C[C@@]1(N)[C@H](O)[C@@H](CO)O[C@H]1n1ccc(N)nc1=O [Compound 1] | 100
